Assay results taken from patent US11701370B2, “Phosphonium ion channel blockers and methods for use” (Nocion Therapeutics, Inc., priority 2019, dated 2023).
Counter-ions that a name gives are not always drawn.

Columns and labels:
NaV1.7 [1] = target: T1, NaV1.7 (Homo sapiens, UniProt Q15858); assay: Internal block: intracellular inhibition of NaV1.7 current, whole cell patch clamp; format: cell-based; conditions: compound in internal solution; for inhibition at 3 µM: 3 μM test concentration; for inhibition at 10 µM: 10 μM test concentration
T1 construct: expressed in transfected cells; tetracycline-inducible, kept under hygromycin and blasticidin selection
Description: (§1) NaV1.7 was expressed upon induction with tetracycline. Cells were cultured in DMEM containing 10% dialyzed Fetal Bovine Serum (VWR, Radnor, Pa.), 1% Glutamax (VWR, Radnor, Pa.), 1% Penicillin-Streptomycin (VWR, Radnor, Pa.), 100 mg/L Hygromycin (Thermo Fisher Scientific, Waltham, Mass. and 5 mg/L Blasticidin (Alfa Aesar, Haverhill, Mass.). Cells were grown and maintained at 37° C. in a humidified environment containing 10% CO2 in air. Cells were detached from the culture flask for passage and harvested using 0.05% Trypsin-EDTA (Thermo Fisher Scientific, Waltham, Mass.). To induce NaV1.7, cells were induced with tetracycline (0.1-1 μg/mL, IBI Scientific, Peosta, Iowa) the day before recording and plated onto 24-well plates. Cells were washed with DPBS (VWR, Radnor, Pa.), trypsinized and then triturated five times in 10 mL of growth media to break apart cell aggregates. For one 24-well plate, 2 mL of cell suspension was mixed with 23 mL of fresh growth media and 0.1-1 μg/mL tetracycline added. 1 ml of mixed media with cells was then added to each well of a 24-well plate, with a 12 mm coverslip already placed in the bottom of the well. Cells were then incubated in 37° C. and 10% CO2 overnight.
(§2) The intracellular solution contained the following (in mM) CsCl 135, NaCl 10, EGTA 10, HEPES 10, MgCl22, adjusted to pH 7.2 with CsOH. The external solution was a normal Ringer solution containing (in mM) NaCl 155, HEPES 10, glucose 10, KCl 3.5, CaCl2 1.5, MgCl2 1 adjusted to pH 7.4 with NaOH. CsCl is from Alfa Aesar, Haverhill, Mass. All other chemicals are from Sigma-Aldrich, St. Louis, Mo. In order to test the degree of internal block by test compounds the compounds were dissolved in internal solution at the indicated test concentration. […] In order to test the degree of external block by test compounds the compounds were dissolved in external solution at the indicated test concentration.
(§3) 18-24 hours after cells were induced with tetracycline, coverslips were placed into a chamber filled with Normal Ringer solution at room temperature and the chamber placed on a microscope. Pipettes were pulled from borosilicate glass on a P97 puller (Sutter Instrument, Novato, Calif.) and polished with a MF-830 Microforge (Narishige International USA, Inc, Amityville, N.Y.) to have a resistance of 1.5-2.5 MΩ when filled with CsCl internal solution at room temperature. Healthy cells (those that are round and translucent with no visible blemishes) were chosen for seal formation. A seal was formed between the pipette and the cell, and a brief pulse of suction was used to “break in” and establish the whole-cell configuration. The membrane potential was held at −100 mV before the voltage protocol began. Only cells with series resistance between 1.5-5 MΩ were retained for analysis. The voltage protocol was as follows: Cells were held at −100 mV for 12 ms followed by a hyperpolarizing step to −105 mV for 12 ms to monitor the leak. Cells were then stepped back to −100 mV for 40 ms. Cells were then depolarized to −20 mV for 10 ms and then returned to −100 mV for 26 ms (FIG. 1).
(§4) Once the recording was started, the voltage protocol was run at 30 second intervals for 5 minutes to get a stable baseline. This was followed by four 30-second periods of 5 Hz stimulation of the same voltage protocol separated by 1 minute of rest which was then followed by 0.33 Hz stimulation after the last train. Currents were recorded using PatchMaster software with Heka EPC10 (HEKA Electronics, Lambrecht, Germany). Only cells with inward current amplitudes at −20 mV between 400 pA and 4 nA were accepted. In addition, cells having leak currents greater than 10% of their current amplitudes were discarded.
(§5) The data was plotted using the Patchmaster software (HEKA Electronics, Lambrecht, Germany) and analyzed by plotting the minimum current during the voltage step to −20 mV (peak inward current) as a function of time. […]

[2] = PAMPA membrane permeability assay (artificial lipid membrane, passive diffusion); format: in vitro ADME; conditions: pH 7.4 buffer, GIT lipid, 4 hours incubation
Description: The PAMPA assay (pION, Inc., Woburn Mass.) was used to determine the ability of compounds of the invention to cross an artificial lipid membrane by passive diffusion. Test compounds were dissolved in DMSO (10 mM) and diluted 200-fold in buffer (pION Inc., pH 7.4) to provide 50 uM stock solutions. Buffer (150 μL) was added to a UV blank plate and stock solutions (150 μL) were transferred to a UV reference plate. The blank and reference spectrum were read using a spectrophotometer. Stock solutions (200 μL) were added to the donor plate of the PAMPA sandwich plate and an accept plate painted with GIT lipid (pION Inc, 5 μL) was placed on top. Buffer (200 μL) was added to the acceptor plate and the PAMPA sandwich plate was incubated for 4 hours. Aliquots (150 μL) from the acceptor plate were added to a UV plate and read as acceptor spectrum. Aliquots (150 μL) of the donor solutions were added to a UV analysis plate and read as donor spectrum. The permeability coefficient of test compounds was calculated using PAMPA Explorer™ software (version 3.5.0.4) based on the AUC of the reference plate, the donor plate, and the acceptor plate.
The PAMPA permeability results (10^−6 cm/s) of representative compounds are reported as “+” (<0.1 10^−6 cm/s), “++” (0.1-2.0 10^−6 cm/s), “+++” (2.0-10.010^−6 cm/s) or “++++” (>10.0 10^−6 cm/s).

NaV1.7 [3] = target: T1, NaV1.7; assay: External block: extracellular inhibition of NaV1.7 current, whole cell patch clamp; format: cell-based; conditions: compound in external solution; for inhibition at 3 µM: 3 μM test concentration; for inhibition at 10 µM: 10 μM test concentration
Description: as §1, §2, §3
as §4, with “This is” for “This was”, “by” for “by four 30-second periods of”, “protocol run until the end” for “protocol separated by 1 minute”, “of experiment. […] The test compound is added for 5 minutes before washing out with normal Ringer's solution.” for “of rest which was then followed by 0.33 Hz stimulation after the last train.”
as §5

T1 sequence (Q15858 whole entry): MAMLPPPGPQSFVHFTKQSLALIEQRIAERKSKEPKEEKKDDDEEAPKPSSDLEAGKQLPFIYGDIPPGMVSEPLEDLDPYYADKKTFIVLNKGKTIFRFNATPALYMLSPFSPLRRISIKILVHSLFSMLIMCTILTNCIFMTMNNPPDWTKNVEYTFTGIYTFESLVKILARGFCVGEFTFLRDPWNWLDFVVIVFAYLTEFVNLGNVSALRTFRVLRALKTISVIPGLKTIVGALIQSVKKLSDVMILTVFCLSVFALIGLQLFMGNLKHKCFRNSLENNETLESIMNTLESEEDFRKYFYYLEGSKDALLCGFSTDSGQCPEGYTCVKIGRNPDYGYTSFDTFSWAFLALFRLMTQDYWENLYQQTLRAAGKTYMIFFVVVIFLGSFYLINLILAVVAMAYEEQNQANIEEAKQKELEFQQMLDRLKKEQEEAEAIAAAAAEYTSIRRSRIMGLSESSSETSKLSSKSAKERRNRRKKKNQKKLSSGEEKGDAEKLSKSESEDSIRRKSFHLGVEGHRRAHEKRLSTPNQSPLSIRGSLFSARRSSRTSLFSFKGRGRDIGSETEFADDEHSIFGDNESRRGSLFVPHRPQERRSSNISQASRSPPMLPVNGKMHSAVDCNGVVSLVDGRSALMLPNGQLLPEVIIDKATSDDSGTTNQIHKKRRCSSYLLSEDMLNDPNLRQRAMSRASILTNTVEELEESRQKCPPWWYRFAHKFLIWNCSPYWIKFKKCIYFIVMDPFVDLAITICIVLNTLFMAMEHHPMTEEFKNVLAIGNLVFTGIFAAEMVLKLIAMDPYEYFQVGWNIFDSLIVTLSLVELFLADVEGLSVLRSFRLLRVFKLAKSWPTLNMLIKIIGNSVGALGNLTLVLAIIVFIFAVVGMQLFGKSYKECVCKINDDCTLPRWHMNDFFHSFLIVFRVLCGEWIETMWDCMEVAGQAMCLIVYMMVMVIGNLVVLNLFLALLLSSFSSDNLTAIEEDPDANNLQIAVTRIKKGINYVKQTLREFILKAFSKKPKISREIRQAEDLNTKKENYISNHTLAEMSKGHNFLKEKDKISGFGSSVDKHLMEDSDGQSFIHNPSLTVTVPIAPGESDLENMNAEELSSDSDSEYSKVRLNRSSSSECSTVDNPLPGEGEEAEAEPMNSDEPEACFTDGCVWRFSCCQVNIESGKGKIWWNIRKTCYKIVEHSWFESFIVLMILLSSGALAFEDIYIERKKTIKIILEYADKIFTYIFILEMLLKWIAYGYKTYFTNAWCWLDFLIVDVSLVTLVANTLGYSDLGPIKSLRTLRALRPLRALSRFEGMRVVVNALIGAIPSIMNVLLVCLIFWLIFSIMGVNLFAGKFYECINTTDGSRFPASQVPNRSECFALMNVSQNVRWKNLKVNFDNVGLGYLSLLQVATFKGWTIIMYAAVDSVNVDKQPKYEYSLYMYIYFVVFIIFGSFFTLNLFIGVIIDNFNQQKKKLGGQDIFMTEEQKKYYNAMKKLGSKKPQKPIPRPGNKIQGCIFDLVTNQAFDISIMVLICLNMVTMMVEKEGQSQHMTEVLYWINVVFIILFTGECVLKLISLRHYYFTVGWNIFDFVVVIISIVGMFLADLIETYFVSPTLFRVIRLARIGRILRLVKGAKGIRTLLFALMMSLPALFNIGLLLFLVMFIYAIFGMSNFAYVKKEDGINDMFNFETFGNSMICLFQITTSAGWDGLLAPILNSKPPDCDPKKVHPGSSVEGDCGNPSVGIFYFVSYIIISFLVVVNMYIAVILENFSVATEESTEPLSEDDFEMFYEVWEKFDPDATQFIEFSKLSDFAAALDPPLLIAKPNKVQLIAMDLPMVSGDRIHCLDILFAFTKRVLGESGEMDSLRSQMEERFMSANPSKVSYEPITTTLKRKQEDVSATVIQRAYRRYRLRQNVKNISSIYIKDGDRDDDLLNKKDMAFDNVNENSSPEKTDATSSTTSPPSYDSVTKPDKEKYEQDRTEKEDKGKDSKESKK

Compound: CCC(C(=O)Nc1c(C)cccc1C(=O)OC)[P+]1(Cc2ccccc2)CCCCC1 (centres unmarked) [Compound 11]
- inhibition at 3 µM (NaV1.7 [1]): 70 to 90%
- Papp at 4 h, 50 uM [2]: < 0.1 ×10⁻⁶ cm/s

Compound: CC[P+](CC)(CC(=O)Nc1c(C)cccc1C)CC(=O)Nc1c(C)cccc1C [Compound 6, bis (2-((2,6-dimethylphenyl)amino)-2-oxoethyl) diethyl phosphonium acetate]
- inhibition at 10 µM (NaV1.7 [1]): 70 to 95%
- Papp at 4 h, 50 uM [2]: < 0.1 ×10⁻⁶ cm/s

Compound: CCOC(=O)c1cccc(C)c1NC(=O)C[P+]1(Cc2ccccc2)CCCCC1 [Compound 13]
- inhibition at 3 µM (NaV1.7 [1]): > 90%
- inhibition at 3 µM (NaV1.7 [3]): 40 to 70%
- Papp at 4 h, 50 uM [2]: < 0.1 ×10⁻⁶ cm/s

Compound: CCC(C(=O)Nc1c(C)cccc1C)[P+](CC)(CC)CC (centres unmarked) [Compound 2, (1-((2,6-dimethylphenyl)amino)-1-oxobutan-2-yl) triethylphosphonium carbonate]
- inhibition at 10 µM (NaV1.7 [1]): 40 to 70%
- Papp at 4 h, 50 uM [2]: > 10 ×10⁻⁶ cm/s

Compound: CCOC(=O)c1cccc(OCC)c1NC(=O)C[P+]1(Cc2ccccc2)CCCCC1 [Compound 20]
- inhibition at 3 µM (NaV1.7 [1]): > 90%
- inhibition at 3 µM (NaV1.7 [3]): < 40%
- Papp at 4 h, 50 uM [2]: < 0.1 ×10⁻⁶ cm/s

Compound: Cc1cccc(C)c1NC(=O)C[P+]1(Cc2ccccc2)CCCC1 [Compound 5, 1-benzyl-1-(2-((2,6-dimethylphenyl)amino)-2-oxoethyl) phospholan-1-ium bromide]
- inhibition at 10 µM (NaV1.7 [1]): 70 to 95%
- inhibition at 10 µM (NaV1.7 [3]): < 40%
- Papp at 4 h, 50 uM [2]: 0.1 to 2 ×10⁻⁶ cm/s

Compound: CCOC(=O)c1cccc(CC)c1NC(=O)C[P+]1(Cc2ccccc2)CCCCC1 [Compound 19]
- inhibition at 3 µM (NaV1.7 [1]): 70 to 90%
- inhibition at 10 µM (NaV1.7 [3]): 40 to 70%
- Papp at 4 h, 50 uM [2]: < 0.1 ×10⁻⁶ cm/s

Compound: CCOC(=O)c1cccc(Cl)c1NC(=O)C[P+]1(Cc2ccccc2)CCCCC1 [Compound 17]
- inhibition at 3 µM (NaV1.7 [1]): > 90%
- inhibition at 3 µM (NaV1.7 [3]): 40 to 70%
- Papp at 4 h, 50 uM [2]: > 10 ×10⁻⁶ cm/s

Compound: CCCC[P+](CCCC)(CCCC)CC(=O)Nc1c(C)cccc1C.[Br-] [Compound 7, tri-n-butyl (2-((2,6-dimethylphenyl)amino)-2-oxoethyl) phosphonium bromide]
- inhibition at 10 µM (NaV1.7 [1]): > 95%
- Papp at 4 h, 50 uM [2]: 2 to 10 ×10⁻⁶ cm/s

Compound: COC(=O)c1cccc(C)c1NC(=O)C[P+]1(Cc2ccccc2)CCCCC1 [Compound 16]
- inhibition at 3 µM (NaV1.7 [1]): 70 to 90%

Compound: COC(=O)c1cccc(C)c1NC(=O)C[P+](c1ccccc1)(c1ccccc1)c1ccccc1 [Compound 23]
- inhibition at 3 µM (NaV1.7 [1]): < 40%
- Papp at 4 h, 50 uM [2]: < 0.1 ×10⁻⁶ cm/s

Compound: CCOC(=O)c1cccc(F)c1NC(=O)C[P+]1(Cc2ccccc2)CCCCC1 [Compound 15]
- inhibition at 3 µM (NaV1.7 [1]): 70 to 90%
- inhibition at 3 µM (NaV1.7 [3]): < 40%
- Papp at 4 h, 50 uM [2]: < 0.1 ×10⁻⁶ cm/s

Compound: CC[P+](CC)(CC)CC(=O)Nc1c(C)cccc1C [Compound 1, (2-((2,6-dimethylphenyl)amino)-2-oxoethyl) triethylphosphonium bromide]
- inhibition at 10 µM (NaV1.7 [1]): 70 to 95%
- inhibition at 1000 µM (NaV1.7 [3]; 1,000 μM test concentration): < 40%
- Papp at 4 h, 50 uM [2]: < 0.1 ×10⁻⁶ cm/s

Compound: Cc1cccc(C)c1NC(=O)C[P+](c1ccccc1)(c1ccccc1)c1ccccc1.O=C[O-] [Compound 8, (2-((2,6-dimethylphenyl)amino)-2-oxoethyl) triphenylphosphonium formate]
- inhibition at 10 µM (NaV1.7 [1]): > 95%
- inhibition at 3 µM (NaV1.7 [3]): 40 to 70%
- Papp at 4 h, 50 uM [2]: < 0.1 ×10⁻⁶ cm/s

Compound: CCC(C(=O)Nc1c(C)cccc1C)[P+]1(Cc2ccccc2)CCCCC1 (centres unmarked) [Compound 10, 1-benzyl-1-(1-((2,6-dimethylphenyl)amino)-1-oxobutan-2-yl)phosphinan-1-ium formate]
- inhibition at 10 µM (NaV1.7 [1]): > 95%
- inhibition at 3 µM (NaV1.7 [3]): 40 to 70%
- Papp at 4 h, 50 uM [2]: < 0.1 ×10⁻⁶ cm/s

Compound: CC[P+](CC)(CC)CC(=O)Nc1c(C)cccc1C(=O)OC.[Br-] [Compound 21]
- inhibition at 3 µM (NaV1.7 [1]): < 40%
- Papp at 4 h, 50 uM [2]: < 0.1 ×10⁻⁶ cm/s

Compound: Cc1cccc(C(=O)OC(C)(C)C)c1NC(=O)C[P+]1(Cc2ccccc2)CCCCC1 [Compound 14]
- inhibition at 3 µM (NaV1.7 [1]): 40 to 70%
- Papp at 4 h, 50 uM [2]: < 0.1 ×10⁻⁶ cm/s

Compound: CCC(C(=O)Nc1c(C)cccc1C)[P+](c1ccccc1)(c1ccccc1)c1ccccc1 (centres unmarked) [Compound 9, (1-((2,6-dimethylphenyl)amino)-1-oxobutan-2-yl) triphenylphosphonium formate]
- inhibition at 10 µM (NaV1.7 [1]): > 95%
- Papp at 4 h, 50 uM [2]: 2 to 10 ×10⁻⁶ cm/s

Compound: CCCC[P+](CCCC)(CCCC)CC(=O)Nc1c(C)cccc1C(=O)OC.[Br-] [Compound 22]
- inhibition at 3 µM (NaV1.7 [1]): 70 to 90%
- Papp at 4 h, 50 uM [2]: < 0.1 ×10⁻⁶ cm/s

Compound: Cc1cccc(C)c1NC(=O)C[P+]1(Cc2ccccc2)CCCCC1.[Br-] [Compound 4, 1-benzyl-1-(2-((2,6-dimethylphenyl)amino)-2-oxoethyl) phosphinan-1-ium bromide]
- inhibition at 10 µM (NaV1.7 [1]): > 95%
- inhibition at 10 µM (NaV1.7 [3]): 40 to 70%
- Papp at 4 h, 50 uM [2]: 0.1 to 2 ×10⁻⁶ cm/s

Compound: CCC(C(=O)Nc1c(C#N)cccc1C(=O)OC)[P+]1(Cc2ccccc2)CCCCC1 (centres unmarked) [Compound 12]
- inhibition at 3 µM (NaV1.7 [1]): 70 to 90%

Compound: Cc1cccc(C)c1NC(=O)C[P+]1(Cc2ccccc2)CCCCCC1 [Compound 3, 1-benzyl-1-(2-((2,6-dimethylphenyl)amino)-2-oxoethyl) phosphepan-1-ium bromide]
- inhibition at 10 µM (NaV1.7 [1]): > 95%
- inhibition at 10 µM (NaV1.7 [3]): 40 to 70%
- Papp at 4 h, 50 uM [2]: < 0.1 ×10⁻⁶ cm/s
